Results reported in patent US5952333A, “Quinazoline derivative” (Zeneca Limited, priority 1995, dated 1999).

Columns and labels:
[1] = molecular target: T1, EGF receptor tyrosine kinase (Homo sapiens, UniProt P00533); assay: In vitro inhibition of the enzyme EGF receptor tyrosine kinase (test (a)); type: biochemical; settings: approximate value, enzyme partially purified from A431 cells, with EGF, 25° C., 10 minutes
T1 construct: Receptor tyrosine kinase was obtained in partially purified form from A431 cells; endogenous in cells; host or cells: A431 cells (human vulval carcinoma); Triton X-100-solubilised membrane fraction
Protocol: (a) An in vitro assay which determines the ability of a test compound to inhibit the enzyme EGF receptor tyrosine kinase. Receptor tyrosine kinase was obtained in partially purified form from A431 cells (derived from human vulval carcinoma) by the procedures described below which are related to those described by Carpenter et al., J. Biol. Chem., 1979, 254,4884, Cohen et al., J. Biol. Chem, 1982, 257, 1523 and by Braun et al., J. Biol. Chem., 1984, 259, 2051.
A-431 cells were grown to confluence using Dulbecco's modified Eagle's medium (DMEM) containing 5% fetal calf serum (FCS). The obtained cells were homogenised in a hypotonic borate/EDTA buffer at pH 10.1. The homogenate was centrifuged at 400 g for 10 minutes at 0-4° C. The supernatant was centrifuged at 25,000 g for 30 minutes at 0-4° C. […]
The test compound/EGF mixture solution (5 μl) was added to the test enzyme solution (10 μl) and the mixture was incubated at 0-4° C. for 30 minutes. […] Radioactivity present in the filter paper was measured using a liquid scintillation counter (Sequence A). […]
Receptor tyrosine kinase inhibition was calculated as follows: [formula]
The extent of inhibition was then determined at a range of concentrations of test compound to give an IC50 value.

[2] = test system: xenografts of the human vulval epidermoid carcinoma cell line A431; assay: In vivo inhibition of growth of A431 xenografts in athymic nude mice (test (c)); design: species or system athymic nude mice (strain ONU:Alpk); human tumour; settings: approximate, daily dose of 50 mg/kg, usually orally, once daily, usually 13 days, relative to untreated controls
Protocol: (c) An in-vivo assay in a group of athymic nude mice (strain ONU:Alpk) which determines the ability of a test compound (usually administered orally as a ball-milled suspension in 0.5% polysorbate) to inhibit the growth of xenografts of the human vulval epidermoid carcinoma cell line A431. A431 cells were maintained in culture in DMEM supplemented with 5% FCS and 2 mM glutamine. Freshly cultured cells were harvested by trvpsinization and injected subcutaneously (10 million cells/0.1 ml/mouse) into both flanks of a number of donor nude mice. When sufficient tumour material was available (after approximately 9 to 14 days), fragments of tumour tissue were transplanted in the flanks of recipient nude mice (test day 0). Generally, on the seventh day after transplantation (test day 7) groups of 7 to 10 mice with similar-sized tumours were selected and dosing of the test compound was commenced. Once daily dosing of test compound was continued for a total of 13 days (test days 7 to 19 inclusive). In some studies the dosing of the test compound was continued beyond test day 19, for example to test day 26. In each case. on the following test day the animals were killed and the final tumour volume was calculated from measurements of the length and width of the tumours. Results were calculated as a percentage inhibition of tumour volume relative to untreated controls.

[3] = test system: human naso-pharyngeal cancer cell line KB; assay: In vitro inhibition of the EGF-stimulated growth of the human naso-pharyngeal cancer cell line KB (test (b)); type: cell-based; settings: 72 h, approximate value, KB cells, EGF (10 ng/ml), 3 days, MTT
Protocol: (b) An in vitro assay which determines the ability of a test compound to inhibit the EGF-stimulated growth of the human naso-pharyngeal cancer cell line KB.
KB cells were seeded into wells at a density of 1×10^4 -1.5×10^4 cells per well and grown for 24 hours in DMEM supplemented with 5% FCS (charcoal-stripped). Cell growth was determined after incubation for 3 days by the extent of metabolism of MTT tetrazolium dye to furnish a bluish color. Cell growth was then determined in the presence of EGF (10 ng/ml) or in the presence of EGF (10 ng/ml) and a test compound at a range of concentrations. An IC50 value could then be calculated.

[4] = test system: human mammary carcinoma which expresses EGF receptor tyrosine kinase; settings: athymic nude mice; Toi et al., 1990; cited from earlier work

T1 sequence (P00533 25-1210): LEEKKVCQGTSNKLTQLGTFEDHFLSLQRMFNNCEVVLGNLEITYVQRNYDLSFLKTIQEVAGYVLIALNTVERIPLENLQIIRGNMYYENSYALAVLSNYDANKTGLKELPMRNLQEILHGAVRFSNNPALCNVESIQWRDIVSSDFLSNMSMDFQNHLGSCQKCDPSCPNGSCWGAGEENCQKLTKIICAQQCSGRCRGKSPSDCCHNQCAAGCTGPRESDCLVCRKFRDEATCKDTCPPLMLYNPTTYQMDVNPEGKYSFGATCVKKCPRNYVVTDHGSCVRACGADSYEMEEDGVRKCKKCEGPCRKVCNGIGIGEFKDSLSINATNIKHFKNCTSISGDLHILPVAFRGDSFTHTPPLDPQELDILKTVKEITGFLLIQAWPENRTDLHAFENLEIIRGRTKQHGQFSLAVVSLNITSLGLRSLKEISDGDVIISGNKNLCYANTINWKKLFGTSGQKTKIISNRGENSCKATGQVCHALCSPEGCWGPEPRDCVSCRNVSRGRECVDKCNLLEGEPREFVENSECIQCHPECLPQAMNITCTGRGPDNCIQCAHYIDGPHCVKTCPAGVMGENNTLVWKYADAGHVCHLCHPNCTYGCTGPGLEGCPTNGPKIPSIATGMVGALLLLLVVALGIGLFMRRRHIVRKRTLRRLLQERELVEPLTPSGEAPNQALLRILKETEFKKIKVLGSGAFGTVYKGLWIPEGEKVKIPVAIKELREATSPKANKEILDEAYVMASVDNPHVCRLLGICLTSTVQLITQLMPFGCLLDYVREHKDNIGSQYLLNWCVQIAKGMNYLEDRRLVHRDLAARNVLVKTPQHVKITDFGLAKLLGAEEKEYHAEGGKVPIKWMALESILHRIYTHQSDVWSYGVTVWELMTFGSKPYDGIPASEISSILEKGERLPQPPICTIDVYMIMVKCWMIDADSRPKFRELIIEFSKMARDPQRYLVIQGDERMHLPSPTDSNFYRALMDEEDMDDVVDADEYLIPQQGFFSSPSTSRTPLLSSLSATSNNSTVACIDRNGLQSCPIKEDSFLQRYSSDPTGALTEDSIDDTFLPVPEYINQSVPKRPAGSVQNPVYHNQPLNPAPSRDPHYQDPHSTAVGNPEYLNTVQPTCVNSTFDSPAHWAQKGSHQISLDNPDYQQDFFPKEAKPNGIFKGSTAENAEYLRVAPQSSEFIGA

IC50 [1]	IC50 [3]	Structure (SMILES)	inhibition of tumour volume [2]	growth of transplanted human mammary carcinoma which expresses EGF receptor tyrosine kinase [4]
~10 nM	~200 nM	COCCNc1cc2c(Nc3cccc(C)c3)ncnc2cc1OC [compound of the invention, 6-(2-methoxyethylamino)-7-methoxy-4-(3'-methylanilino)quinazoline]	~50%	–
–	–	O=CN/C=C/c1cc(O)ccc1O [erbstatin]	–	specifically attenuates the growth
